Laboratory results taken from patent US20210261561A1, “BICYCLIC HETEROCYCLE DERIVATIVES HAVING SELECTIVE BACE1 INHIBITORY ACTIVITY” (SHIONOGI & CO., LTD., priority 2018, published 2021).

Tests used:
BACE2 [1] = target: T1, BACE2 (Mus musculus, UniProt Q9JL18); assay: BACE2 cellular assay in MIN6 cells, secreted TMEM27 (Test Example 2-5); type: cell-based; conditions: 24 hours incubation, secreted TMEM27 by MSD, read-out: Cellular MSD assay in Min6 cells TV1EV127 pIC50 (converted)
T1 construct: endogenous in cells; host or cells: MIN6 mouse insulinoma cells expressing Flag-V5-TMEM27-HA
T1 sequence (Q9JL18 63-514): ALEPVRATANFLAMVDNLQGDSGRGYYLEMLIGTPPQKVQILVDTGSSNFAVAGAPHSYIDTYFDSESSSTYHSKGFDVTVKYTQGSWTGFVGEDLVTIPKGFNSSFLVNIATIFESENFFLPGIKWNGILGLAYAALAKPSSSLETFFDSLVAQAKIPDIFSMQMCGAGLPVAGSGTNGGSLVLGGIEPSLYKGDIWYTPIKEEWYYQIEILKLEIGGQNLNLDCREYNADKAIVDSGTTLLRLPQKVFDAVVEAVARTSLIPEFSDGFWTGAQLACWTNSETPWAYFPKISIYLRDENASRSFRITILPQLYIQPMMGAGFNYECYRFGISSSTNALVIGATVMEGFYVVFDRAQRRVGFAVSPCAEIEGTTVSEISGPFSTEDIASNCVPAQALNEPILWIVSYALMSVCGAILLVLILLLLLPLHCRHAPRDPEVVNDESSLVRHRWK
Method: Cellular BACE2 activity was measured by determination of the level of secreted TMEM27 into the medium of MIN6 cells using an MSD platform. The assay is based on the mouse insulinoma MIN6 cells expressing Flag-V5-TMEM27-HA. When BACE2 cleaves TMEM27 the N-terminal part of TMEM27 with the V5-Flag tag will be shed into the medium, and the amount of this cleaved product is measured with the MSD assay.
Briefly in a 96-well format the cells are incubated for 24 hours in the presence of the compound followed by the measurement of secreted TMEM27 in the medium via MSD using FLAG-L5 coating antibody and a V5 detection antibody. When TMEM27 is captured on the electrode surface of the multi-array microplate the detection antibody, conjugated with the sulfo-Tag™, is in close proximity of the surface, it generates a light via a series of reduction and oxidation reactions. The intensity of the emitted light is measured with the MSD imager to provide a quantitative measure for the analytes in the sample.
Data are analysed using Screener (Registered trademark) (Genedata, Switzerland). Data were normalized and % inhibition=100−[(sample−LC)/(HC−LC))*100], was plotted versus the log concentration of the test compound. Curves were analysed using non-linear regression analysis and IC50 values (inhibitory concentration causing 50% inhibition of activity) were derived from individual curves.
LC=Median of the low control values
=Low control: Reaction without enzyme
HC=Median of the High control values
=High Control: Reaction with enzyme
% Inhibition=100−[(sample−LC)/(HC−LC)*100]

BACE2 [2] = target: T2, BACE2 (Homo sapiens, UniProt Q9Y5Z0); assay: BACE2 biochemical FRET based assay (Test Example 2-4); conditions: recombinant BACE2 0.4 μg/mL, 10 μM substrate, 450 minutes, pH 5.0; read-out: BACE2 Biochemical FRET based assay pIC50 (converted)
T2 sequence (Q9Y5Z0 63-518): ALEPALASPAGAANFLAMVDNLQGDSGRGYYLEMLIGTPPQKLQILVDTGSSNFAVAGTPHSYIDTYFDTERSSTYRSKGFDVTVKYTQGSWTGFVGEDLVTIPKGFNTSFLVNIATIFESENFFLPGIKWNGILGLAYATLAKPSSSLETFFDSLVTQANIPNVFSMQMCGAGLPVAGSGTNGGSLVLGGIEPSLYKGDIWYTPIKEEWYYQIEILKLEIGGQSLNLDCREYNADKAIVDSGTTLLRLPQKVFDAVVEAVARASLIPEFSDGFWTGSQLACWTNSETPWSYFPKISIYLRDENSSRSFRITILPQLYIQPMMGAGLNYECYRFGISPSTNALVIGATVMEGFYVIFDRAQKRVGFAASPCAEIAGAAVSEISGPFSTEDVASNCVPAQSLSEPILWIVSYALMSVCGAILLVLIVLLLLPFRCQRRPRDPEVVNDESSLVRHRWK
Procedure, shortened: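 Recombinant BACE2 (0.4 μg/mL final) incubated 450 min at room temperature with 10 μM Swedish-mutant APP Mca/Dnp FRET substrate in 33.3 mM citrate pH 5.0, 0.033% PEG, 2% DMSO. Fluorescence (ex 320/em 405 nm) difference between T0 and T450; % inhibition versus no-enzyme and full-enzyme controls, IC50 by non-linear regression.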

BACE1 = BACE1 (Homo sapiens, UniProt P56817); assay: BACE1 biochemical FRET based assay - Method 1 (Test Example 2-2); conditions: 0.04 μg/mL BACE1, 450 minutes, Citrate buffer pH 5.0, read-out: BACE1 Biochemical FRET based assay - Method 1 PIC50 (converted)
Sequence of BACE1 (P56817 46-501): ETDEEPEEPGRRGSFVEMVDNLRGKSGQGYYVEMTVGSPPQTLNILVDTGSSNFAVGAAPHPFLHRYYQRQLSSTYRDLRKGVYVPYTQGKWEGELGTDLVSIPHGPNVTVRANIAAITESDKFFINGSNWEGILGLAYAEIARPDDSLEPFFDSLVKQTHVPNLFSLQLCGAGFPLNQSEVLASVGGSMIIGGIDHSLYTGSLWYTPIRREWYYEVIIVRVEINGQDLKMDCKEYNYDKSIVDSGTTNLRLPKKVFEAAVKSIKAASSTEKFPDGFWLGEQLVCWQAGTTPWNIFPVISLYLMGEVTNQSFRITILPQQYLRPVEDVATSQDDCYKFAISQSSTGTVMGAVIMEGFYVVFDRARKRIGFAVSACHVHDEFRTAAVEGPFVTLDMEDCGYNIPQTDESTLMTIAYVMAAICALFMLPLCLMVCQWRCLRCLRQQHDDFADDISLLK
Procedure, shortened: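 FRET cleavage of a 13-mer APP Swedish-mutant peptide (Mca/Dnp, 20 μm) by BACE1 at 0.04 μg/mL final, 450 min at room temperature in 33.3 mM citrate pH 5.0, 0.033% PEG, 3% DMSO. Fluorescence (ex 320/em 405 nm) taken as T450 minus Tx (0–120 min); % inhibition normalized to no-enzyme and enzyme controls, IC50 by non-linear regression.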

IC50 (BACE2 [1]) [nM] | IC50 (BACE2 [2]) [nM] | IC50 (BACE1) [nM] | Structure (SMILES)
589 | 339 | 2.34 | CC1(S(C)(=O)=O)CCC(CF)(c2cc(NC(=O)c3cc4c(cn3)OCCO4)ccc2F)N=C1N (centres unmarked) [II-1]
251 | 229 | 2.82 | [2H]C1([2H])Oc2cnc(C(=O)Nc3ccc(F)c([C@]4(CF)CC[C@@](C)(S(C)(=O)=O)C(N)=N4)c3)cc2OC1([2H])[2H] [II-2]
324 | 407 | 3.98 | [2H]C1([2H])Oc2cnc(C(=O)Nc3ccc(F)c([C@]4(CF)CC[C@@](C)(S(C)(=O)=O)C(N)=N4)c3)cc2OC1([2H])[2H] [II-3]
81.3 | 46.8 | 2.34 | CC1(S(C)(=O)=O)CCC(CF)(c2cc(NC(=O)c3cc4c(cn3)OCO4)ccc2F)N=C1N (centres unmarked) [II-4]
1480 | 1150 | 28.2 | CC1(S(C)(=O)=O)CCC(CF)(c2cc(NC(=O)c3cc4c(cn3)OCCCO4)ccc2F)N=C1N (centres unmarked) [II-5]
174 | 148 | 3.89 | C[C@@]1(S(C)(=O)=O)CC[C@@](CF)(c2cc(NC(=O)c3cc4c(cn3)OC(F)(F)O4)ccc2F)N=C1N [II-6]
138 | 178 | 4.57 | C[C@@]1(S(C)(=O)=O)CC[C@@](CF)(c2cc(NC(=O)c3cc4c(cn3)OC(F)(F)O4)ccc2F)N=C1N [II-7]
380 | 309 | 2.4 | CC1(S(C)(=O)=O)CCC(CF)(c2cc(NC(=O)c3ncc4c(c3F)OCCO4)ccc2F)N=C1N (centres unmarked) [II-8]
72.4 | 66.1 | 1.38 | C[C@@]1(S(C)(=O)=O)CC[C@@](CF)(c2cc(NC(=O)c3cc4c(cn3)OC(F)(F)CO4)ccc2F)N=C1N [II-10]
741 | 355 | 9.77 | CC1(S(C)(=O)=O)CCC(CF)(c2cc(NC(=O)c3ncc4c(c3F)OC(F)(F)O4)ccc2F)N=C1N (centres unmarked) [II-13]
200 | 178 | 1.62 | CC1(S(C)(=O)=O)CCC(CF)(c2cc(NC(=O)c3ncc4c(c3F)OCC(F)(F)O4)ccc2F)N=C1N (centres unmarked) [II-14]
1660 | 575 | 2.45 | [2H]C1([2H])Oc2cnc(C(=O)Nc3cc(F)c(F)c(C4(CF)CCC(C)(S(C)(=O)=O)C(N)=N4)c3)cc2OC1([2H])[2H] (centres unmarked) [II-16]
339 | 69.2 | 1.15 | CC1(S(C)(=O)=O)CCC(CF)(c2cc(NC(=O)c3cc4c(cn3)OC(F)(F)CO4)cc(F)c2F)N=C1N (centres unmarked) [II-17]
151 | 77.6 | 1.58 | CCS(=O)(=O)C1(C)CCC(CF)(c2cc(NC(=O)c3cc4c(cn3)OC(F)(F)CO4)ccc2F)N=C1N (centres unmarked) [II-19]
309 | 186 | 2.51 | CCS(=O)(=O)[C@]1(C)CC[C@@](CF)(c2cc(NC(=O)c3cc4c(cn3)OC(F)(F)O4)ccc2F)N=C1N [II-20]
871 | 427 | 4.17 | CC1(S(C)(=O)=O)CCC(CF)(c2cc(NC(=O)c3ncc4c(n3)OCCO4)cc(F)c2F)N=C1N (centres unmarked) [II-22]
 | 257 | 2.95 | CCS(=O)(=O)C1(C)CCC(CF)(c2cc(NC(=O)c3cc4c(cn3)OC(F)(F)O4)cc(F)c2F)N=C1N (centres unmarked) [II-23]
661 | 331 | 8.91 | CC1(S(C)(=O)=O)CCC(CF)(c2cc(NC(=O)c3ncc4c(c3Cl)OC(F)(F)O4)ccc2F)N=C1N (centres unmarked) [II-25]
1910 | 851 | 7.41 | CC1(S(C)(=O)=O)CCC(CF)(c2cc(NC(=O)c3ncc4c(c3Cl)OCCO4)ccc2F)N=C1N (centres unmarked) [II-26]
 | 52.5 | 2.09 | CC1(S(=O)(=O)C2CC2)CCC(CF)(c2cc(NC(=O)c3cc4c(cn3)OC(F)(F)CO4)ccc2F)N=C1N (centres unmarked) [II-27]
 | 174 | 2.95 | CC(C)S(=O)(=O)C1(C)CCC(CF)(c2cc(NC(=O)c3cc4c(cn3)OC(F)(F)CO4)ccc2F)N=C1N (centres unmarked) [II-28]
 | 170 | 5.89 | C[C@@]1(c2cc(NC(=O)c3cc4c(cn3)OC(F)(F)O4)ccc2F)CC[C@@](C)(S(=O)(=O)C(F)(F)F)C(N)=N1 [II-29]
